Assay results published in patent publication US20210277020A1, “HETEROCYCLIC COMPOUNDS AS MONOACYLGLYCEROL LIPASE INHIBITORS” (Hoffmann-La Roche Inc., priority 2018, published 2021).
pIC50: −log10 of the molar value.

Biological target: T1, MAGL (Homo sapiens, UniProt Q99685)
T1 sequence (Q99685 1-303): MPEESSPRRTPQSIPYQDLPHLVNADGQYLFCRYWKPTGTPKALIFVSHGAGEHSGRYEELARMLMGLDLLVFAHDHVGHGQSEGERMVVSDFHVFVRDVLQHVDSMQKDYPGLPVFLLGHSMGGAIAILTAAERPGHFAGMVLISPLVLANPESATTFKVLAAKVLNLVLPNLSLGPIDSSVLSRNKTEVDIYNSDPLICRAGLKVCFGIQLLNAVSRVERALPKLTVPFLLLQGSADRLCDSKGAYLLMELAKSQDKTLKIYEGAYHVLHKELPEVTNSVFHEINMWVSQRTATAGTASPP
Assay: 2-AG assay: MAGL inhibition followed by hydrolysis of 2-arachidonoylglycerol to arachidonic acid, mass spectrometry
Format: biochemical
Conditions: measured in 2-AG assay (footnote [a]); substrate 2-arachidonoylglycerol 8 μM, 30 min at RT
Excerpt: Alternatively, compounds were profiled for MAGL inhibitory activity by determining the enzymatic activity by following the hydrolysis of the natural substrate, 2-arachidonoylglycerol, resulting in arachidonic acid, which can be followed by mass spectrometry. This assay is hereinafter abbreviated “2-AG assay”.
Detection by mass spectrometry in the present 2-AG assay has the advantage over known optical assays that the natural enzyme substrate, 2-arachidonoylglycerol, can be used instead of structurally unrelated compounds needed for optical readouts (such as 4-NPA). It thereby delivers more relevant data for activity determination, reduces false positives and generally adds to data quality. In addition, this assay reduces the analysis time from about 10 minutes per sample with standard methods to under 10 seconds per sample. This allows for using the present 2-AG assay in a method for high throughput screening of compounds for their MAGL inhibitory activity.
The 2-AG assay was carried out in 384 well assay plates (PP, Greiner Cat #784201) in a total volume of 20 μL. Compound dilutions were made in 100% DMSO (VWR Chemicals 23500.297) in a polypropylene plate in 3-fold dilution steps to give a final concentration range in the assay from 12.5 μM to […]. 0.25 μL compound dilutions (100% DMSO) were added to 9 μL MAGL in assay buffer (50 mM TRIS (GIBCO, 15567-027), 1 mM EDTA (Fluka, 03690-100 mL), 0.01% (v/v) Tween. After shaking, the plate was incubated for 15 min at RT. To start the reaction, 10 μL 2-arachidonoylglycerol in assay buffer was added. The final concentrations in the assay was […] and 8 μM 2-arachidonoylglyerol. After shaking and 30 min incubation at RT, the reaction was quenched by the addition of 40 μL of acetonitrile containing 4 μM of d8-arachidonic acid. The amount of arachidonic acid was traced by an online SPE system (Agilent Rapidfire) coupled to a triple quadrupole mass spectrometer (Agilent 6460). A C18 SPE cartridge (G9205A) was used in an acetonitrile/water liquid setup. The mass spectrometer was operated in negative electrospray mode following the mass transitions 303.1→259.1 for arachidonic acid and 311.1→267.0 for d8-arachidonic acid. The activity of the compounds was calculated based on the ratio of intensities [arachidonic acid/d8-arachidonic acid].
In a preferred embodiment, the method for determining the MAGL inhibitory activity of a test compound according to the invention, comprises: • (i) providing a solution of a test compound; • (ii) adding the solution of step (i) to a solution of MAGL; • (iii) shaking the mixture obtained from step (ii); • (iv) incubating the mixture obtained from step (iii); • (v) adding a solution of 2-arachidonoylglycerol; • (vi) incubating the mixture obtained from step (v); • (vii) adding a solution of d8-arachidonic acid; and • (viii) determining the ratio of intensities arachidonic acid/d8-arachidonic acid using a mass spectrometer.

Structure (SMILES) | pIC50
O=C1CO[C@H]2CCN(C(=O)N3CC(CNC(c4ccc(Cl)cc4Cl)C(F)(F)F)C3)C[C@H]2N1 (stereo partly drawn) [Example 69, (4aR,8aS)-6-(3-(((1-(2,4-Dichlorophenyl)-2,2,2-trifluoroethyl)amino)methyl)azetidine-1-carbonyl)hexahydro-2H-pyrido[4,3-b][1,4]oxazin-3(4H)-one] | 8.10
O=C1CO[C@H]2CCN(C(=O)N3CCC(C#Cc4ncccc4Cl)CC3)C[C@H]2N1 [Example 127, (+)-(4aR,8aS)-6-[4-[2-(3-Chloropyridin-2-yl)ethynyl]piperidine-1-carbonyl]-4,4a,5,7,8,8a-hexahydropyrido[4,3-b][1,4]oxazin-3-one] | 6.51
O=C1CO[C@H]2CCN(C(=O)N3CCC(C#Cc4ccc(F)cc4Cl)CC3)C[C@H]2N1 [Example 128, (+)-(4aR,8aS)-6-[4-[2-(2-Chloro-4-fluorophenyl)ethynyl]piperidine-1-carbonyl]-4,4a,5,7,8,8a-hexahydropyrido[4,3-b][1,4]oxazin-3-one] | 7.64
O=C1CO[C@H]2CCN(C(=O)N3CC(SCc4ccc(C(F)(F)F)cc4F)C3)C[C@H]2N1 [Example 156, (4aR,8aS)-6-[3-[[2-Fluoro-4-(trifluoromethyl)phenyl]methylsulfanyl]azetidine-1-carbonyl]-4,4a,5,7,8,8a-hexahydropyrido[4,3-b][1,4]oxazin-3-one] | 8.15
O=C1CO[C@H]2CCN(C(=O)N3CC(C#Cc4ccccc4OC(F)F)C3)C[C@H]2N1 [Example 175, (4aR,8aS)-6-[3-[2-[2-(Difluoromethoxy)phenyl]ethynyl]azetidine-1-carbonyl]-4,4a,5,7,8,8a-hexahydropyrido[4,3-b][1,4]oxazin-3-one] | 7.48
CN(c1ccc(C(F)(F)F)cc1)C1CCN(C(=O)N2CC[C@@H]3OCC(=O)N[C@@H]3C2)CC1 (racemic) [Example 136, rac-(4aR,8aS)-6-[4-[N-methyl-4-(trifluoromethyl)anilino]piperidine-1-carbonyl]-4,4a,5,7,8,8a-hexahydropyrido[4,3-b][1,4]oxazin-3-one] | 7.66
N#CC1(c2ccc(C#CC3CN(C(=O)N4CC[C@@H]5OCC(=O)N[C@@H]5C4)C3)cc2)CC1 [Example 178, 1-[4-[2-[1-[(4aR,8aS)-3-Oxo-4,4a,5,7,8,8a-hexahydropyrido[4,3-b][1,4]oxazine-6-carbonyl]azetidin-3-yl]ethynyl]phenyl]cyclopropane-1-carbonitrile] | 7.25
O=C1CO[C@H]2CCN(C(=O)N3CC([S+]([O-])c4ccc(C(F)(F)F)cc4Cl)C3)C[C@H]2N1 (single isomer, unassigned) [Example 147] | 4.90
O=C1CO[C@H]2CCN(C(=O)N3CCC(C#Cc4cnccc4Cl)CC3)C[C@H]2N1 [Example 126, (+)-(4aR,8aS)-6-[4-[2-(4-Chloropyridin-3-yl)ethynyl]piperidine-1-carbonyl]-4,4a,5,7,8,8a-hexahydropyrido[4,3-b][1,4]oxazin-3-one] | 6.51
O=C1CO[C@H]2CCN(C(=O)N3CC(C[S+]([O-])c4ccc(C(F)(F)F)cc4Cl)C3)C[C@H]2N1 (single isomer, unassigned) [Example 154] | 6.51
O=C1CO[C@H]2CCN(C(=O)N3CC(SCc4c(F)cccc4C(F)(F)F)C3)C[C@H]2N1 [Example 295, (4aR,8aS)-6-(3-((2-Fluoro-6-(trifluoromethyl)benzyl)thio)azetidine-1-carbonyl)hexahydro-2H-pyrido[4,3-b][1,4]oxazin-3(4H)-one] | 7.64
O=C1CO[C@H]2CCN(C(=O)N3CC(C[S+]([O-])c4ccc(C(F)(F)F)cc4Cl)C3)C[C@H]2N1 (single isomer, unassigned) [Example 155] | 5.70
O=C1CO[C@H]2CCN(C(=O)N3CC(C#Cc4ccc(C(F)(F)F)cc4)C3)C[C@H]2N1 [Example 167, (4aR,8aS)-6-[3-[2-[4-(Trifluoromethyl)phenyl]ethynyl]azetidine-1-carbonyl]-4,4a,5,7,8,8a-hexahydropyrido[4,3-b][1,4]oxazin-3-one] | 8.00
O=C1CO[C@H]2CCN(C(=O)N3CC(Sc4ccc(C(F)(F)F)cc4Cl)C3)C[C@H]2N1 [Example 143, (4aR,8aS)-6-[3-[2-Chloro-4-(trifluoromethyl)phenyl]sulfanylazetidine-1-carbonyl]-4,4a,5,7,8,8a-hexahydropyrido[4,3-b][1,4]oxazin-3-one] | 6.98

Further lines, results first:

pIC50 | Structure (SMILES)
7.89 | O=C1CO[C@H]2CCN(C(=O)N3CC(C#Cc4ccc(F)cc4Cl)C3)C[C@H]2N1 [Example 135, (+)-(4aR,8aS)-6-[3-[2-(2-Chloro-4-fluorophenyl)ethynyl]azetidine-1-carbonyl]-4,4a,5,7,8,8a-hexahydropyrido[4,3-b][1,4]oxazin-3-one]
8.22 | Cc1cccc(Cl)c1C#CC1CN(C(=O)N2CC[C@@H]3OCC(=O)N[C@@H]3C2)C1 [Example 184, (4aR,8aS)-6-[3-[2-(2-Chloro-6-methylphenyl)ethynyl]azetidine-1-carbonyl]-4,4a,5,7,8,8a-hexahydropyrido[4,3-b][1,4]oxazin-3-one]
7.92 | O=C1CO[C@H]2CCN(C(=O)N3CC(C#Cc4ccc(Cl)cc4F)C3)C[C@H]2N1 [Example 174, (4aR,8aS)-6-[3-[2-(4-Chloro-2-fluorophenyl)ethynyl]azetidine-1-carbonyl]-4,4a,5,7,8,8a-hexahydropyrido[4,3-b][1,4]oxazin-3-one]
7.89 | O=C1CO[C@H]2CCN(C(=O)N3CC(C#Cc4csc(Cl)c4)C3)C[C@H]2N1 [Example 188, (4aR,8aS)-6-[3-[2-(5-Chlorothiophen-3-yl)ethynyl]azetidine-1-carbonyl]-4,4a,5,7,8,8a-hexahydropyrido[4,3-b][1,4]oxazin-3-one]
7.44 | O=C1CO[C@H]2CCN(C(=O)N3CC(C#Cc4cc(F)ccc4Cl)C3)C[C@H]2N1 [Example 185, (4aR,8aS)-6-[3-[2-(2-Chloro-5-fluorophenyl)ethynyl]azetidine-1-carbonyl]-4,4a,5,7,8,8a-hexahydropyrido[4,3-b][1,4]oxazin-3-one]
7.80 | O=C1CO[C@H]2CCN(C(=O)N3CC(C#Cc4cccc(F)c4Cl)C3)C[C@H]2N1 [Example 172, (4aR,8aS)-6-(3-((2-Chloro-3fluorophenyl)ethynyl)azetidine-1-carbonyl)hexahydro-2H-pyrido[4,3-b][1,4]oxazin-3(4H)-one]
8.00 | Cc1ccccc1C#CC1CN(C(=O)N2CC[C@@H]3OCC(=O)N[C@@H]3C2)C1 [Example 173, (4aR,8aS)-6-(3-(o-Tolylethynyl)azetidine-1-carbonyl)hexahydro-2H-pyrido[4,3-b][1,4]oxazin-3(4H)-one]
8.22 | Cc1c(F)cccc1C#CC1CN(C(=O)N2CC[C@@H]3OCC(=O)N[C@@H]3C2)C1 [Example 168, (4aR,8aS)-6-[3-[2-(3-Fluoro-2-methylphenyl)ethynyl]azetidine-1-carbonyl]-4,4a,5,7,8,8a-hexahydropyrido[4,3-b][1,4]oxazin-3-one]
7.31 | COc1ccccc1C#CC1CN(C(=O)N2CC[C@@H]3OCC(=O)N[C@@H]3C2)C1 [Example 163, (4aR,8aS)-6-(3-((2-Methoxyphenyl)ethynyl)azetidine-1-carbonyl)hexahydro-2H-pyrido[4,3-b][1,4]oxazin-3(4H)-one]
8.40 | Cc1cccc(C)c1C#CC1CN(C(=O)N2CC[C@@H]3OCC(=O)N[C@@H]3C2)C1 [Example 169, (4aR,8aS)-6-[3-[2-(2,6-Dimethylphenyl)ethynyl]azetidine-1-carbonyl]-4,4a,5,7,8,8a-hexahydropyrido[4,3-b][1,4]oxazin-3-one]
